Experiments:
brain [1] = assay: MSI imaging of brain sections (phosphatidylcholines, choline, creatine); format: in vivo; conditions: SD rats, rapamycin 0.2 mg/kg i.p., ketamine 30 mg/kg i.p.
Description: (§1) There were three animals (n=3) in each group. Animals were sacrificed and the brain removed and frozen for imaging studies.
All MSI imaging experiments were performed on a Bruker ultrafleXtreme TOF/TOF mass spectrometer. For matrix evaluation, 4 serial sections of thickness 10 μm from sham control brain S2 were acquired using a Leica CM 1850 Cryostat and subsequently thaw mounted onto an ITO coated glass slide. Each section in turn was coated with 15 mL of 20 mg mL^−1 of CHCA in CH3OH, 0.1% TFA) using an artist airbrush while the remaining 2 sections were covered. Data were collected over the mass range m/z 60-1400. MSI experiments of a single section from each group (Rapa, Ket and Control) were conducted. […]. Images were acquired with a pixel size of 100 μm×100 μm.

brain [2] = assay: T2 weighted MRI of brain after mTOR inhibition/activation; format: in vivo; conditions: SD rats; rapamycin 0.2 mg/kg i.p., ketamine 30 mg/kg i.p.; n=3
Excerpt: as §1

## CNC1(c2ccccc2Cl)CCCCC1=O (stereo not shown) [ketamine]
Brain [1]
  phosphatidylcholine species in the brain (ion images) relative to control: clear differences induced by mTOR inhibition or activation
Brain [1]; vs control
  choline levels in the brain: measureable changes
  creatine levels in the brain: measureable changes
Brain [2]
  T2 weighted MRI images versus control animals: clear differences in the T2 weighted MRI images

— patent US9944986B2, “Therapeutic targets for Alzheimer's disease” (The University of Birmingham, priority 2012, dated 2018)
